Measurements published in patent publication US20200016159A1, “N3-CYCLICALLY SUBSTITUTED THIENOURACILS AND USE THEREOF” (Bayer Aktiengesellschaft, priority 2016, published 2020).

Molecular target: T1, human adenosine A2b receptor (Homo sapiens, UniProt P29275)
T1 sequence (P29275 1-332): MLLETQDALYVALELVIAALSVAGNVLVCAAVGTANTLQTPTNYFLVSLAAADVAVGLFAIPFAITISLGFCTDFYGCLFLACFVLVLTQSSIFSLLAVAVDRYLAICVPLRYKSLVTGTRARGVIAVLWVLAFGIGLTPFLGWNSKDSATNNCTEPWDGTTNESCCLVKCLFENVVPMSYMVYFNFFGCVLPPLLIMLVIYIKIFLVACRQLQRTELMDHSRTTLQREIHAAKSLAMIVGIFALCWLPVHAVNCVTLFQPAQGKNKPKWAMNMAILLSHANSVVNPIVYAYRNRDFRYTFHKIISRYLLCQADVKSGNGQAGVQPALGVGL
Test: Cellular in vitro reporter gene test for A2b receptor activity (antagonism of NECA)
Type: cell-based
Set-up: expressed in transfected cells; host or cells: CHO-K1 (Chinese hamster ovary) with CRE-luciferase reporter
Details: recombinant CHO-K1 cells, CRE-luciferase reporter, co-incubation with EC50 concentration of NECA, 3 hours
Method: The identification of selective antagonists of the human adenosine A2b receptor and the quantification of the efficacy and selectivity of the compounds according to the invention was carried out with the aid of recombinant cell lines for the human adenosine receptors A1, A2a, A2b and A3. These cell lines were originally derived from an ovarepithelial cell of the hamster (Chinese Hamster Ovary, CHO-K1, American Type Culture Collection, Manassas, Va. 20108, USA). In addition to the respective recombinantly expressed adenosine receptor for testing the efficacy at the A1, A2a and A2b receptors, the cell lines contain a reporter gene construct where expression of the firefly (Photinus pyralis) luciferase is under the control of a promoter which can be activated via intracellular signal cascades by stimulation of the receptors with the (not subtype-selective) adenosine receptor agonist NECA (5′-N-ethylcarboxamidoadenosine) [S. J. Hill, J. G. Baker, S. Rhees, Curr. Opin. Pharmacol. 1, 526-532 (2001)].
In the case of the A2a and A2b cell lines, this is a minimal promoter having a plurality of cAMP-responsive elements (CRE). Stimulation of the Gs-coupled A2b or A2a receptors by NECA ultimately leads, via formation of cAMP, to CRE-dependent induction of luciferase expression, which is detected 3 hours after the start of the incubation with NECA using a detection solution in a suitable luminometer. For testing the antagonists, initially, in a pre-experiment, the concentration of NECA which, at the test day in question, results in half-maximum stimulation of luciferase expression (EC50 concentration) is determined. By joint incubation of this EC50 concentration of NECA with the substances to be tested, it is possible to determine their antagonistic activity.
Table 1 below lists the IC50 values from the A2b receptor assay for individual working examples (in some cases as means of a plurality of independent individual determinations and rounded to two significant figures; it may also be the case here that various independent preparations of the respective working example have been used): […]

In order of falling IC50:
1. COCCn1c(=O)n(C2(C(F)(F)F)CC2)c(=O)c2c(C)c(Cn3nc[nH]c3=O)sc21 [Example 89, 1-(2-Methoxyethyl)-5-methyl-6-[(5-oxo-4,5-dihydro-1H-1,2,4-triazol-1-yl)methyl]-3-[1-(trifluoromethyl)cyclopropyl]thieno[2,3-d]pyrimidine-2,4(1H,3H)-dione]  1200 nM
2. COCCn1c(=O)n([C@H]2C[C@@H](OC)C2)c(=O)c2c(C)c(CN3CCNC(=O)C3=O)sc21 [Example 162, 6-[(2,3-Dioxopiperazin-1-yl)methyl]-3-(cis-3-methoxycyclobutyl)-1-(2-methoxyethyl)-5-methylthieno[2,3-d]pyrimidine-2,4(1H,3H)-dione]  730 nM
3. Cc1c(CN2CCNC(=O)C2=O)sc2c1c(=O)n(C1COC1)c(=O)n2CCC(F)(F)F [Example 133, 6-[(2,3-Dioxopiperazin-1-yl)methyl]-5-methyl-3-(oxetan-3-yl)-1-(3,3,3-trifluoropropyl)thieno[2,3-d]pyrimidine-2,4(1H,3H)-dione]  430 nM
4. COCCn1c(=O)n([C@H]2C[C@H](OC)C2)c(=O)c2c(C)c(CN3CCNC(=O)C3=O)sc21 [Example 152, 6-[(2,3-Dioxopiperazin-1-yl)methyl]-3-(trans-3-methoxycyclobutyl)-1-(2-methoxyethyl)-5-methylthieno[2,3-d]pyrimidine-2,4(1H,3H)-dione]  340 nM
5. CCC1(n2c(=O)c3c(C)c(Cn4nc[nH]c4=O)sc3n(CCC(F)(F)F)c2=O)CC1 [Example 107, 3-(1-Ethylcyclopropyl)-5-methyl-6-[(5-oxo-4,5-dihydro-1H-1,2,4-triazol-1-yl)methyl]-1-(3,3,3-trifluoropropyl)thieno[2,3-d]pyrimidine-2,4(1H,3H)-dione]  290 nM
6. Cc1c(Cn2nc[nH]c2=O)sc2c1c(=O)n(C1CC1)c(=O)n2CCCC#N [Example 212, 4-{3-Cyclopropyl-5-methyl-2,4-dioxo-6-[(5-oxo-4,5-dihydro-1H-1,2,4-triazol-1-yl)methyl]-3,4-dihydrothieno[2,3-d]pyrimidin-1 (2H)-yl}butanenitrile]  240 nM
7. COCCn1c(=O)n([C@H]2C[C@@H](OC)C2)c(=O)c2c(C)c(CN3CCNC3=NC#N)sc21 [Example 160, [1-{[3-(cis-3-Methoxycyclobutyl)-1-(2-methoxyethyl)-5-methyl-2,4-dioxo-1,2,3,4-tetrahydrothieno[2,3-d]pyrimidin-6-yl]methyl}imidazolidin-2-ylidene]cyanamide]  200 nM
8. CO[C@H]1C[C@@H](n2c(=O)c3c(C)c(Cn4nc[nH]c4=O)sc3n(CCC(F)(F)F)c2=O)C1 [Example 158, 3-(cis-3-Methoxycyclobutyl)-5-methyl-6-[(5-oxo-4,5-dihydro-1H-1,2,4-triazol-1-yl)methyl]-1-(3,3,3-trifluoropropyl)thieno[2,3-d]pyrimidine-2,4(1H,3H)-dione]  180 nM
9. Cc1c(Cn2nc[nH]c2=O)sc2c1c(=O)n(C1(C)CC1)c(=O)n2C[C@H]1CCCO1 [Example 83, 5-Methyl-3-(1-methylcyclopropyl)-6-[(5-oxo-4,5-dihydro-1H-1,2,4-triazol-1-yl)methyl]-1-[(2R)-tetrahydrofuran-2-ylmethyl]thieno[2,3-d]pyrimidine-2,4(1H, 3H)-dione]  130 nM
10. Cc1c(Cn2nc[nH]c2=O)sc2c1c(=O)n(C1(C)CC1)c(=O)n2CC#N [Example 69, [5-Methyl-3-(1-methylcyclopropyl)-2,4-dioxo-6-[(5-oxo-4,5-dihydro-1H-1,2,4-triazol-1-yl)methyl]-3,4-dihydrothieno[2,3-d]pyrimidin-1(2H)-yl]acetonitrile]  120 nM
11. COCCn1c(=O)n(C2CC(C)(C)C2)c(=O)c2c(C)c(Cn3nc[nH]c3=O)sc21 [Example 173, 3-(3,3-Dimethylcyclobutyl)-1-(2-methoxyethyl)-5-methyl-6-[(5-oxo-4,5-dihydro-1H-1,2,4-triazol-1-yl)methyl]thieno[2,3-d]pyrimidine-2,4(1H,3H)-dione]  83 nM
12. Cc1c(CN2CCNC(=O)C2=O)sc2c1c(=O)n(C1CC1)c(=O)n2CCCF [Example 8, 3-Cyclopropyl-6-[(2,3-dioxopiperazin-1-yl)methyl]-1-(3-fluoropropyl)-5-methylthieno[2,3-d]pyrimidine-2,4(1H,3H)-dione]  44 nM
13. Cc1c(CN2CCNC2=O)sc2c1c(=O)n(C1CC1)c(=O)n2CC1CCCO1 (racemic) [Example 37, 3-Cyclopropyl-5-methyl-6-[(2-oxoimidazolidin-1-yl)methyl]-1-(tetrahydrofuran-2-ylmethyl)thieno[2,3-d]pyrimidine-2,4(1H,3H)-dione]  35 nM
14. Cc1c(CN2CCNC2=O)sc2c1c(=O)n(C1CC1)c(=O)n2C[C@H]1CCCO1 [Example 38, 3-Cyclopropyl-5-methyl-6-[(2-oxoimidazolidin-1-yl)methyl]-1-[(2R)-tetrahydrofuran-2-ylmethyl]thieno[2,3-d]pyrimidine-2,4(1H,3H)-dione]  33 nM
15. COCCn1c(=O)n(C2CC2)c(=O)c2c(C)c(CN3CCNC3=O)sc21 [Example 24, 3-Cyclopropyl-1-(2-methoxyethyl)-5-methyl-6-[(2-oxoimidazolidin-1-yl)methyl]thieno[2,3-d]pyrimidine-2,4(1H,3H)-dione]  29 nM
16. CO[C@H]1C[C@H](n2c(=O)c3c(C)c(CN4CCNC4=NC#N)sc3n(CCC(F)(F)F)c2=O)C1 [Example 145, [1-{[3-(trans-3-Methoxycyclobutyl)-5-methyl-2,4-dioxo-1-(3,3,3-trifluoropropyl)-1,2,3,4-tetrahydrothieno[2,3-d]pyrimidin-6-yl]methyl}imidazolidin-2-ylidene]cyanamide]  23 nM
17. COC(=O)N=C1NCCN1Cc1sc2c(c1C)c(=O)n(C1(C)CCC1)c(=O)n2CCC(F)(F)F [Example 136, Methyl [1-{[5-methyl-3-(1-methylcyclobutyl)-2,4-dioxo-1-(3,3,3-trifluoropropyl)-1,2,3,4-tetrahydrothieno[2,3-d]pyrimidin-6-yl]methyl}imidazolidin-2-ylidene]carbamate]  19 nM
18. Cc1c(CN2CCNC2=O)sc2c1c(=O)n(C1CC1C)c(=O)n2C[C@H]1CCCO1 (stereo partly drawn) [Example 286, 5-Methyl-3-(2-methylcyclopropyl)-6-[(2-oxoimidazolidin-1-yl)methyl]-1-[(2R)-tetrahydrofuran-2-ylmethyl]thieno[2,3-d]pyrimidine-2,4(1H,3H)-dione]  17 nM
19. Cc1c(Cn2nc[nH]c2=O)sc2c1c(=O)n(C1CC(C)(C)C1)c(=O)n2CCC(F)(F)F [Example 168, 3-(3,3-Dimethylcyclobutyl)-5-methyl-6-[(5-oxo-4,5-dihydro-1,2,4-triazol-1-yl)methy]-1-(3,3,3-trifluoropropyl)thieno[2,3-d]pyrimidine-2,4(1H,3H)-dione]  16 nM
20. CCC1CC1n1c(=O)c2c(C)c(CN3CCNC3=O)sc2n(CCOC)c1=O (single isomer, unassigned) [Example 302, 3-(2-Ethylcyclopropyl)-1-(2-methoxyethyl)-5-methyl-6-[(2-oxoimidazolidin-1-yl)methyl]thieno[2,3-d]pyrimidine-2,4(1H,3H)-dione]  10 nM
21. Cc1c(CN2CCNC2=O)sc2c1c(=O)n([C@H]1C[C@@H]1C)c(=O)n2CC1CCC(F)(F)C1 (stereo partly drawn) [Example 255, 1-[(3,3-Difluorocyclopenty)methy]-5-methyethyl-3-[(S,2S)-2-methylcyclopropyl]-6-[(2-oxoimidazolidin-1-yl)methyl]thieno[2,3-d]pyrimidine-2,4(1H,3H)-dione]  6.7 nM
22. Cc1c(CN2CCNC2=O)sc2c1c(=O)n(C1CC1C)c(=O)n2CCSC(F)(F)F (racemic) [Example 279, 5-Methyl-3-(2-methylcyclopropyl)-6-[(2-oxoimidazolidin-1-yl)methyl]-1-{2-[(trifluoromethyl)sulfanyl]ethyl}thieno[2,3-d]pyrimidine-2,4(1H,3H)-dione]  1.6 nM
23. COC(=O)N=C1NCCN1Cc1sc2c(c1C)c(=O)n(C1CCC1)c(=O)n2CCC(F)(F)F [Example 112, Methyl [1-{[3-cyclobutyl-5-methyl-2,4-dioxo-1-(3,3,3-trifluoropropyl)-1,2,3,4-tetrahydrothieno[2,3-d]pyrimidin-6-yl]methyl}imidazolidin-2-ylidene]carbamate]  1.2 nM
